Data set [1] is described as follows: Wide-angle x-ray diffraction (WAXRD) of powders. The note with it: powder, 2θ 5 to 35°. The format is physicochemical. How it is done: The ABZ and ABZ-BA powders were characterized by an X’Pert3 Powder X-ray diffractometer (PANalytical, Inc. U.K.), a voltage of 40 kV, and a current of 40 mA. The samples were scanned from 2θ = 5 to 35° at a scanning speed of 1°/min, and the step size was at 0.01° 2θ [10].

Data set [2] in a line: Water solubility, stated in response to reviewers. Format: physicochemical. An excerpt:
ABZ and ABZ-BA are both water-insoluble, so we suspended the drug in a 0.5% sodium carboxymethyl cellulose (CMC-Na) aqueous solution. This method of administration has been widely used for the oral administration of poorly soluble drugs. This method has been adopted by our research group in previous studies, and many studies have been published that use this method, including the following: […]

For data set [3], the system named is protoscolex (PSCs). Briefly: Detection of protoscolex mortality / survival rate in vitro (trypan blue). Format: cell-based, E. multilocularis. The note with it: for inhibitory effect on PSC survival rate: 7 days, ABZ 10 μg/mL, ABZ-SO 10 μg/mL, ABZ-BA 13.45, 26.9, 53.8 μg/mL, liver homogenate + 0.2% DMSO, n = 3. The text has this:
(§1) Protoscoleces (PSCs) from E. multilocularis were collected aseptically from alveolar echinococcosis obtained from the abdominal cavity of gerbils in Qinghai Research Key Laboratory for Echinococcosis, China. The specific operation steps were as follows: (1) dissect the successfully preserved Echinococcus protoscoleces gerbil model, isolate cysts and wash the residual liver tissue and blood with sterile Penicillin-Streptomycin solution (penicillin (1500 U/ mL) + streptomycin (1000 U/ mL)). (2) Place the clean cysts in sterile glassware, cut them into a slurry, filter the original head section with sterile gauze, and rinse them with Penicillin-Streptomycin solution 3 times. (3) Slightly rotate and shake the filtrate, absorb the suspended connective tissue, impurities, inactivated PSCs, and excess Penicillin-Streptomycin solution in the upper layer, repeat several times and finally concentrate the pure PSCs into the test tube. Viability was assessed by muscular movement (evaluated under an optical microscope), the motility of flame cells, and the exclusion test with methylene blue. The PSCs were incubated in an RPMI 1640 medium containing 0.20 mg/mL liver homogenous serous, 100 U/mL penicillin, 100 μg/mL streptomycin and 10% calf serum at 37°C in a 5% CO2 atmosphere at a concentration of (1000–2000) PSCs/mL.
(§2) The PSCs were divided into blank control groups (Groups 1 and 2), positive control groups (Groups 3 and 4), and experimental groups (Groups 5 to 7). Group 1 was RPMI-1640 medium with 0.20 mg/mL liver homogenate; Group 2 was 0.2% DMSO medium with 0.2% DMSO; Group 3 was RPMI-1640 medium with 0.20 mg/mL liver homogenate and 0.2% DMSO, containing 10 μg/mL Albendazole; Group 4 was RPMI-1640 medium with 0.20 mg/mL liver homogenate and 0.2% DMSO, containing 10 μg/mL albendazole sulfoxide; Groups 5–7 were RPMI-1640 medium with 0.20 mg/mL liver homogenate and 0.2% DMSO, containing 13.45, 26.9 and 53.8 μg/mL ABZ-BA, with effective ABZ concentrations of 5, 10 and 20 μg/mL, respectively. The culture medium and drug were changed every 3 days for one week. PSCs samples (10 μL) were collected every day and stained with 0.4% trypan blue staining solution, observed under an inverted microscope, and photographed to record PSC mortality.

Data set [4] relates to protoscolex (PSCs). The data set is described as follows: Protoscolex microstructure by optical microscope and SEM. The format is cell-based, E. multilocularis. The note with it: 5 days after treatment.
Description: as §1, §2
For ultrastructural studies, 200 μL PSCs were taken from each group 5 days after treatment and fixed with 4% glutaraldehyde in sodium cacodylate buffer at 4°C for 72 hours. Samples were dehydrated by continuous incubation in increasing concentrations of ethanol (50–100%), and ethanol was removed by supercritical extraction. They were then sputter-coated with gold (100 Å thick) and examined on an FEI Quanta 200 scanning electron microscope operating at 20 kV.

A short description of data set [5]: Systemic pharmacokinetics in SD rats (UHPLC-MS). Format: in vivo, Sprague-Dawley (SD) rats. The note with it: for Cmax: po, 25 mg/kg. As for the experimental part: A Dionex Ultimate 3000 RSLC system (Thermofisher) combined with an Accucore aQ C18 column (150 mm×2.1 mm, 2.6 μm, Thermo fisher) was used in the sample separation process. The separation speed was set at […] for all gradients. 1 μL of injection volume and a constant temperature of (25 ± 1°C were set for the column. The eluents were A, water with 0.1% formic acid (v/v) and B, methanol; the gradient program was as follows: 0–6 min, 8–40% B; 6–8 min, 40–100% B; 8–10 min, 100% B; 10–11 min, 100–8% B; 11–13 min, 8% B.
Heated electro-spray ionization (HE-SI) was paired with a Q-Orbitrap MS in the MS analysis. The flow rate of auxiliary, sheath and sweep gas was set at 35, 10, and 1 (arbitrary unit), respectively. A full MS-ddMS^2 mode was used to perform the analysis. The damping gas in the C-trap and nitrogen was used to stabilize the spraying. Temperatures of 350°C and 320°C were set and kept for the auxiliary gas heater and capillary. Under negative mode, 3.0 kV was adopted for the spray voltage, 60 V was used for the S-lens RF level, 50 ms was used for the maximum injection time, and 3.0 ^e6 was set as the automatic gain control target. Full MS-ddMS^2 scan ranged from 150.0000 to 800.0000 m/z. Precise molecular weight […] was used for qualitative analysis, the corresponding peak area was used for quantitative analysis, and MS^2 fragments were used for further qualitative analysis.
A cross-over design was employed with male SD rats (n = 7) to evaluate in vivo pharmacokinetics. The rats were subjected to fasting for one night before each administration and were fed 4 hours after administration. ABZ was administered by gavage (25 mg/kg). Blood was collected under isoflurane anesthesia at a flow rate of 2.0 mL/min. At 0.25, 0.5, 1, 2, 2.5, 3, 4, 6, 8, 12, and 24 hours after administration, 200–500 μL blood was collected from the orbital venous plexus and centrifuged at 13000 rpm for 5 min. The upper plasma was stored at—80°C for testing.
Plasma samples were thawed at room temperature, and 100 μL was added to an equal volume of mass spectrometry grade methanol, vortexed for 1 min, and centrifuged again at 13000 rpm for 5 min. 100 μL of the supernatant were added to 100 μL of 200 ng/mL mebendazole IS solution, vortexed for 1 min, and centrifuged again at 13000 rpm for 5 min. The resulting sample was injected by UHPLC-HR-ESI-MS with an injection volume of 1 μL. The pharmacokinetic study of SD rats was performed according to the standards recommended by the "Guidelines for the Care and Use of Laboratory Animals" (Animal Laboratory Resources Institute, 1995) and was approved by the Institutional Animal Care and Use Committee of Qinghai University.

Entries after “also recorded” stand apart in the source; their conditions may differ. Where two headings read alike, the source gives them in different places. Bounds are passed on as bounds.

The term Cmax denotes the peak of the concentration-time curve. What is called Tmax is the time from dosing to the highest level. By AUC(0-inf) is commonly meant the area under the concentration-time curve extrapolated to infinity. Read a low AUC(0-inf) as less exposure. On to `CCCSc1ccc2nc(NC(=O)OC)[nH]c2c1` [ABZ, Albendazole], for which the “physical state (WAXRD)” value in data set [1] is “crystalline”. In data set [2] (reason for dosing as suspension in 0.5% CMC-Na), the water solubility entry was “water-insoluble”. The “inhibitory effect on PSC survival rate” value in data set [3] was “time and concentration-dependent inhibitory effects”. Besides, in data set [4] (10 μg/mL), the “PSC morphology under the SEM” value is “elongated and curled up”. Besides, in data set [4] (10 μg/mL), the “PSC morphology under the optical microscope (OM)” value is “became vacuolar and transparent”. The “mortality of PSCs” value in data set [4] (10 μg/mL, vs blank groups) is “significantly higher than in the blank groups”. Moreover, the highest concentration (Cmax) in data set [5] (male, Sprague-Dawley, rat, in vivo, SD rats, oral 25mg/kg of API) amounted to 76.4 ± 7.62 ng/mL; in data set [5] (male, Sprague-Dawley, rat, in vivo, SD rats, oral 25 mg/kg, n = 7, Table 2), 8.44 ± 3.6 ng/mL. In addition, in data set [5] (male, Sprague-Dawley, rat, in vivo, SD rats, oral 25 mg/kg, n = 7), the Tmax stood at 10.9 ± 1.95 h. In addition, the total exposure AUC(0-inf) in data set [5] (male, Sprague-Dawley, rat, in vivo, SD rats, oral 25 mg/kg, n = 7, Abz = ABZ content of ABZ-BA) worked out at 101 ± 45.9 ng·h/mL. For the same compound, the AUC(0-t) in data set [5] (male, Sprague-Dawley, rat, in vivo, SD rats, oral 25 mg/kg, n = 7, Abz = ABZ content of ABZ-BA, read-out: AUC(0–24)) was 91.5 ± 42.7 ng·h/mL. In addition, the MRT inf in data set [5] (male, Sprague-Dawley, rat, in vivo, SD rats, oral 25 mg/kg, n = 7, read-out: MRT(0-∞)) was found to be 13.9 ± 3.98 h. Further, in data set [5] (male, Sprague-Dawley, rat, in vivo, SD rats, oral 25 mg/kg, n = 7, read-out: MRT(0–24)), the MRT last amounted to 11.6 ± 0.91 h. Further, in data set [5] (male, Sprague-Dawley, rat, in vivo, SD rats, oral 25 mg/kg, n = 7, read-out: Vz/F), the Vd/F is 1990 ± 1620 L/kg. In addition, the half-life in data set [5] (male, Sprague-Dawley, rat, in vivo, SD rats, oral 25 mg/kg, n = 7, read-out: t1/2z (converted)) was 5.51 ± 4.27 h. Besides, the concentration at 8 h in data set [5] (male, Sprague-Dawley, rat, in vivo, SD rats, oral 25mg/kg, lower limit of detection, read-out: blood concentration after oral administration for 8 hours) is below 1 ng/mL.

In the case of `CCCSc1ccc2[nH]c(NC(=O)NCCCCOC(=O)CCC(C)C3CCC4C5C(O)CC6CC(O)CCC6(C)C5CC(O)C34C)nc2c1` (stereo not drawn) [ABZ-BA], the “physical state (WAXRD)” value in data set [1] is reported as “amorphous”. Moreover, in data set [2], the water solubility entry is recorded as “water-insoluble”. The “inhibitory effect on PSC survival rate” value in data set [3] is “time and concentration-dependent inhibitory effects”. The “inhibitory effect / killing ability on PSCs compared with ABZ” value in data set [3] (in vitro) is given as “identical to that of ABZ; also recorded: the same as that of ABZ”. In data set [4] (ABZ-BA 13.45 μg/mL), the “PSC morphology, lowest concentration” value was “obvious shrinkage at the lowest concentration, but the suckers were still clearly visible”. Also, in data set [4] (ABZ-BA 26.9 and 53.8 μg/mL), the “PSC morphology, intermediate and high concentration” value is listed as “strikingly distinct from their original form, appearing in a disc state after death”. Also, the “detectability in blood after oral administration for 8 hours” value in data set [5] (SD rats, oral 25 mg/kg) was “easily detected”. Moreover, the “pharmacokinetic behavior compared with Albenda” value in data set [5] (rat, in vivo) is given as “superior to that of Albenda”.

(Values after paper PMC9838834, “Improvement of Antialveolar echinococcosis efficacy of novel Albendazole-Bile acids Derivatives with Enhanced Oral Bioavailability” (PLOS Neglected Tropical Diseases, 2023).)
